From publication PMC3905694, “Targeting Low-Druggability Bromodomains: Fragment Based Screening and Inhibitor Design against the BAZ2B Bromodomain” (Journal of Medicinal Chemistry, 2013)

Columns and labels:
BRD2-BD1 = biological target: T1, BRD2-BD1 (Homo sapiens, UniProt P25440); assay: AlphaScreen fragment screen; assay type: binding; conditions: fragment library screen
T1 construct: screened against the bromodomains of BRD2-BD1 and CREBBP

CREBBP = biological target: T2, CREBBP (Homo sapiens, UniProt Q92793); assay: AlphaScreen fragment screen; assay type: binding; conditions: fragment library screen
T2 construct: screened against the bromodomains of BRD2-BD1 and CREBBP

[1] = Solubility (qualitative remarks); assay type: physicochemical; conditions: in words
BAZ2B bromodomain [2] = biological target: T3, BAZ2B bromodomain (Homo sapiens, UniProt Q9UIF8); assay: Direct ITC titrations; assay type: binding; set-up: successful targeting of the challenging BAZ2B bromodomain; made in house; host or cells: E. coli BL21(DE3); conditions: in words
T3 sequence (Q9UIF8 2060-2164 limits assumed): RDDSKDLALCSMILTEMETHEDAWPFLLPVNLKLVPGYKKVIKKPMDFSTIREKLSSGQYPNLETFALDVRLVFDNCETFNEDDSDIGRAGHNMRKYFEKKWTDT

BAZ2B bromodomain [3] = biological target: T3, BAZ2B bromodomain; assay: AlphaLISA competitive peptide displacement (antipentahis acceptor beads); conditions: in words

T2 sequence (Q92793 1085-1192 limits assumed): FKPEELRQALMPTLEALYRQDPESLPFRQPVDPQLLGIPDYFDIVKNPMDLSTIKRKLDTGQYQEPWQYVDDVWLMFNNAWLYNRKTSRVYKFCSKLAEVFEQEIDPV
T1 sequence (P25440 74-180 limits assumed): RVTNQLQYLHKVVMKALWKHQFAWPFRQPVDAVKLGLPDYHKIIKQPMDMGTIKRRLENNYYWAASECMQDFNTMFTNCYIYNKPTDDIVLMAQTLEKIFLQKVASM

Structure (SMILES)	hit in fragment screen (BRD2-BD1)	hit in fragment screen (CREBBP)	solubility [1]	other results
CNC(=O)c1cc(C)n(C)n1 [Compound 5]	hits	hits	–	–
CNC(=O)N1CCc2[nH]c3ccc(Cl)cc3c2C1 [Compound 40]	–	–	improved solubility	–
CC(=S)N1CCc2[nH]c3ccc(Cl)cc3c2C1 [Compound 38]	–	–	–	binding to the protein (BAZ2B bromodomain [2]): Neither of these bound
NC(=S)N1CCc2[nH]c3ccc(Cl)cc3c2C1 [Compound 39]	–	–	–	binding to the protein (BAZ2B bromodomain [3]): Neither of these bound
CC(=O)N1CCc2[nH]c3ccc(Cl)cc3c2C1 [Compound 6]	hits	hits	poor solubility	–
